In patent US20060167057A1, “Compounds for the treatment of CNS and amyloid associated diseases” (priority 2004, published 2006):

Assays:
[1] = tested on: Apolipoprotein E-Aβ interaction; test: Apolipoprotein E-Aβ interaction assay; assay type: binding; conditions: 200 μM test compound, ApoE/Aβ alone = 100%
Method: The level of interaction between Apolipoprotein E and Aβ was measured for five inventive compounds to determine whether, under the specific conditions of the present example, the compounds would inhibit the interaction. Nunc-Immuno Maxisorp 96-well microtiter plates were coated with 1 μM HFIP-disaggregated Aβ in 0.1 M NaHCO3 pH 9.6 for 2 hours and 15 minutes at 37°, washed two times in TBS (100 mM Tris-HCl, pH 7.5, 150 mM NaCl), and wells were blocked with 1% fatty-acid free BSA in TBS overnight at 4°.
Test compounds were prepared in either TBS or DMSO at a final concentration of either 2 mM or 10 mM respectively. Recombinant ApoE (Fitzgerald Industries Int.) was prepared in 700 mM NH4HCO3 at a final concentration of 0.44 mg/mL to prevent monomer assembly and stored as aliquots at −20°. 3.41 μg/mL of purified ApoE was pre-incubated in the presence of 200 μM test compounds, all in triplicate, in 1% BSA/TBS in a 96-well transfer plate for one hour and then added to the Aβ-coated wells for an additional two hours with gentle shaking at 37° to allow ApoE/Aβ association. Plates were washed three times in TBS to remove excess ApoE and incubated first with 0.125 μg/mL mouse monoclonal anti-ApoE antibody (BD Bioscience) for 1 hour, washed and then incubated with 0.26 μg/mL horse-radish peroxidase conjugated goat anti-IgG antibody (Pierce) for 1 hour in 1% BSA/TBS-T (0.05% Tween-20). After washing, wells were incubated with Sure Blue™ TMB-1 peroxidase substrate (KPL) for 30 minutes. The reaction was stopped using 1N HCl. Absorbance values at 450 nm were measured using TECAN plate reader and reflect the amount of ApoE bound to Aβ in the wells. Data were expressed as a percentage of ApoE/Aβ complexes by arbitrarily setting ApoE/Aβ alone at 100%. All compounds were tested at least twice.

HUVEC = test: Cellular toxicity assay on HUVEC (WST-1 viability); assay type: cell-based, human; conditions: 24 hours, <75% considered toxic
Method: Compound samples in PBS (without Ca^+2, Mg^+2)-glucose 3 mM-HEPES 10 mM—DMSO 1%, as prepared in Example 1, were thawed and left for at least 30 minutes at 20-23° C. before preparation of the following sub-dilutions for the compound toxicity assay: • 100 μL of stock compound solution were added to 900 μL PBSD-1 [diluted 1:10 for a final 1:10 dilution] • 100 μL (1/10 dilution above) were added to 900 μL PBSD-1 [diluted 1:10 for a final 1:100 dilution] Culture of HUVEC
Endothelial cells from human umbilical cord (HUV-EC-C or HUVEC) were purchased form American Type Culture Collection (ATCC, CRL-1730) and cultured according to the manufacturer's protocol. A 1-mL frozen aliquot of sub-cultured cells was thawed in a 37° C. water bath and centrifuged following addition of 5 mL of medium. After re-suspension in 5 mL medium, cells were seeded in a TC80 cm^2 flask pre-coated with 0.1% gelatin. Culture medium was replaced every 3-4 days and cells monitored until confluency was reached.
A sterile stock solution of 0.5 mM of camptothecin (Sigma) was prepared by dissolving a weighed amount of 0.0085 g in 50 mL of double distilled water at 37° C. in a water bath. The solution was vortexed, then filtered through a 0.22-μm filter unit and kept at 4° C. for the duration of the toxicity assays.
From the stock solution, concentrations of 60, 75, 80, 100, 150, 200 and 250 nM of camptothecin were prepared in culture diluent containing 1% DMSO.
HUVEC were cultured for 4 days in gelatin-coated 96-well plates, following seeding with 40 μL/well of a cellular suspension of 1×10^5 cells/mL. Culture media was replaced every 3-4 days of culture until confluency was reached.
On the day of the toxicity assay, the conditioned culture media was removed from the wells and 90 μL of culture medium containing 1% DMSO was distributed in the plate. A volume of 10 μL of the stock solution, 1:10 and 1:100 dilutions of the compounds in PBS-glucose-HEPES-DMSO 1% were added to the appropriate wells (100-μL total volume/well). A volume of 100 μL of camptothecin dilutions and culture medium containing 1% DMSO was also distributed into the plate. Cells were incubated at 37° C. of 24 hours and then 10 μL of the tetrazolium salt WST-1 solution were added to cells and incubated for an extra 90 minutes at 37° C. The absorbance that was associated to the cellular viability was measured at 450nm on the SpectraFluor Tecan reader, and the raw data processed.
The intrinsic cellular toxicity of the compounds was determined for each concentration of every compound on HUVEC. The viability percentage was assessed (OD sample/OD control) ×100% and any value <75% viability was considered toxic. The following table, Table 5, lists the few compounds that presented at least one toxic concentration.

[2] = biological target: T1, L1 transport system (large neutral amino acid carrier, L1-system carrier) (Rattus norvegicus, UniProt Q63016); test: Competitive binding assay to the brain L1 transport system (L-[U-14C]phenylalanine on rat primary cerebrovascular endothelial cells)
T1 construct: functionality of their endogenous transporters such as the L1-system carrier; endogenous in cells; host or cells: rat primary cerebrovascular (brain microcapillary) endothelial cells, RBEC
Outline: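 Cells were primary cerebral microvascular endothelial cells from cortices of 24-day-old rats, isolated by collagenase/DNAse digestion, dextran separation and mesh filtration.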

SH-SY5Y cells = test: Hoechst staining assay of Aβ1-42-induced apoptosis; assay type: cell-based; conditions: Homo sapiens, 10 μM Aβ1-42, 200 μM compound, 24 hours, read-out: inhibition of Aβ-induced cellular apoptosis at DNA level
Method: SH-SY5Y cells were cultured and sub-cultured according to ATCC's recommendations. Cells were grown in a culture medium containing 10% fetal bovine serum (FBS), 1× non-essential amino acids in a 1:1 mixture of Eagle's minimum essential medium and Ham's F12 medium.
For passage, cells were trypsinized with 0.25% (w/vol) Trypsin/Ethylene-diaminetetraacetic (EDTA) for 5 min at 37° C., and then centrifuged for 5 min at 300× g (GS-6R Beckman Centrifuge). The pellet was resuspended in the culture medium and the cell density was adjusted.
Synthetic Aβ1-42 is purchased from American Peptide Company, Sunnyvale, Calif. […] The exact concentration of the solution is calculated by measuring the optical density at 280 nm. […]
Nuclear morphology was observed using an Olympus fluorescent microscope IX50 equipped with an Olympus Camera (20× objectif and a bandpass filter (Ex/Em: 355 nm/465 nm). Live cells and cells considered morphologically apoptotic were counted. Apoptotic nuclei of undifferentiated SH-SY5Y appear condensed and occasionally fragmented (representative pictures of Hoechst staining are in FIGS. 1A-1B for vehicle and 2A-2B for Aβ).
Five random fields were captured for each condition in a blinded fashion. Apoptotic and normal nuclei in each field were quantified by manual examination. […] The total number of cells counted in each condition ranged from 120 to 550. […]

T1 sequence (Q63016 whole entry): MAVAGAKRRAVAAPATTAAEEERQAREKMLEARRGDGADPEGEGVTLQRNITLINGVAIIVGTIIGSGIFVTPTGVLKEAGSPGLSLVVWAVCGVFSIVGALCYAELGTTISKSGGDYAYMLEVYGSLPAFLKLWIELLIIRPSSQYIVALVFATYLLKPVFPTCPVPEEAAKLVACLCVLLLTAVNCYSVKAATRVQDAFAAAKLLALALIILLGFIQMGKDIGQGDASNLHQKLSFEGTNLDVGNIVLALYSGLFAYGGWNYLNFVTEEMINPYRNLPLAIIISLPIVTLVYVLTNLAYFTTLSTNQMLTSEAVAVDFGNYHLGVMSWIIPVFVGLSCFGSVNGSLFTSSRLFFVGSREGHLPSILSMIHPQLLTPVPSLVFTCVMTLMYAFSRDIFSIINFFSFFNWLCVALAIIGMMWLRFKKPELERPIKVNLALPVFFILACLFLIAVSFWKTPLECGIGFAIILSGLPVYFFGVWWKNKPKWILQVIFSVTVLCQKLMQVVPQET
T1 sequence (Q794F9 whole entry partner): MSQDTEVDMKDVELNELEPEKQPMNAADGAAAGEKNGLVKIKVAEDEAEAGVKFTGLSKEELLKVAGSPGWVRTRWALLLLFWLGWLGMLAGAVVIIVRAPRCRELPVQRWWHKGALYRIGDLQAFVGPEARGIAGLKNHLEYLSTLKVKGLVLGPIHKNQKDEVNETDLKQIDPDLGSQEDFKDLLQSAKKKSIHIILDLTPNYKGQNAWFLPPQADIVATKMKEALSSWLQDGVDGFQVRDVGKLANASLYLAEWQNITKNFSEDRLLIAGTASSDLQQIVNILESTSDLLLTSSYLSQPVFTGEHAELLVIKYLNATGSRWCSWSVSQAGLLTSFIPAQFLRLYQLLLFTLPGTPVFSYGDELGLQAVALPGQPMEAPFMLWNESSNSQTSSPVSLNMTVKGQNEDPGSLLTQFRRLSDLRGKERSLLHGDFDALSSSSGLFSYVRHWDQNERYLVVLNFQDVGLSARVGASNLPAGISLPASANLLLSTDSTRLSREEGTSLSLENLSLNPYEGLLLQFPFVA

Row | Compound | Aβ-ApoE % Complex ([1]; first value of the cell) | Aβ-ApoE % Complex ([1]; second value of the cell) | Viability (%) (HUVEC; 10^−4 M) | Viability (%) (HUVEC; 10^−5 M) | Viability (%) (HUVEC; 10^−6 M) | Comparison with the Binding of Phenylalanine ([2]; 10^−4 M) | Comparison with the Binding of Phenylalanine ([2]; 10^−5 M) | Comparison with the Binding of Phenylalanine ([2]; 10^−6 M) | inhibition at 200 µM (SH-SY5Y cells)
1 | N[C@@H](Cc1cccc(CSc2nnc(-c3ccccc3)[nH]2)c1)C(=O)O [drawing 531] | 88% | 94% | – | – | – | – | – | – | –
2 | NC(Cc1cccc(CSc2nc3ccccc3o2)n1)C(=O)O (centres unmarked) [Compound 30] | – | – | 110% | 112% | 8% | 1 (0 < X < 10 Rank 1) | 2 (10 < X < 20 Rank 2) | 3 (X > 20 Rank 3) | –
3 | N[C@@H](Cc1cccc(CSc2nnc(-c3ccccc3)[nH]2)c1)C(=O)O [drawing 537] | – | – | – | – | – | – | – | – | 22.5%
4 | N[C@@H](Cc1cccc(CSc2nc3ccccc3[nH]2)n1)C(=O)O [drawing 532] | 94% | 112% | – | – | – | – | – | – | –
5 | N[C@@H](Cc1cccc(CSc2nnc(-c3ccncc3)o2)c1)C(=O)O [drawing 533] | 101% | 94% | – | – | – | – | – | – | –
6 | O=C(O)C(Cc1cccc(CSc2nnc[nH]2)n1)NS(=O)(=O)c1ccc(F)cc1 (centres unmarked) [Compound 66] | – | – | 117% | 114% | 67% | 2 (10 < X < 20 Rank 2) | 3 (X > 20 Rank 3) | 0 (X < 0 Rank 0) | –
7 | O=C(NC(Cc1cccc(CSc2ncnc3[nH]ncc23)n1)C(=O)O)NC(c1ccccc1)c1ccccc1 (centres unmarked) [Compound 65] | – | – | 107% | 68% | 109% | – | – | – | –
8 | NC(Cc1cccc(CSc2nnnn2-c2ccccc2)c1)C(=O)O (centres unmarked) [drawing 530] | 107% | 97% | – | – | – | – | – | – | –
9 | COc1ccc(-n2nnnc2SCc2cccc(C[C@H](N)C(=O)O)c2)cc1 [drawing 529] | 98% | 97% | – | – | – | – | – | – | –
10 | O=C(NC(Cc1cccc(CSc2nnc[nH]2)n1)C(=O)O)NC(c1ccccc1)c1ccccc1 (centres unmarked) [Compound 37] | – | – | 94% | 50% | 87% | 2 (10 < X < 20 Rank 2) | 3 (X > 20 Rank 3) | 2 (10 < X < 20 Rank 2) | –
